This test addresses T1, EI^Ntr (Escherichia coli, UniProt P37177).
T1 sequence (P37177 1-748): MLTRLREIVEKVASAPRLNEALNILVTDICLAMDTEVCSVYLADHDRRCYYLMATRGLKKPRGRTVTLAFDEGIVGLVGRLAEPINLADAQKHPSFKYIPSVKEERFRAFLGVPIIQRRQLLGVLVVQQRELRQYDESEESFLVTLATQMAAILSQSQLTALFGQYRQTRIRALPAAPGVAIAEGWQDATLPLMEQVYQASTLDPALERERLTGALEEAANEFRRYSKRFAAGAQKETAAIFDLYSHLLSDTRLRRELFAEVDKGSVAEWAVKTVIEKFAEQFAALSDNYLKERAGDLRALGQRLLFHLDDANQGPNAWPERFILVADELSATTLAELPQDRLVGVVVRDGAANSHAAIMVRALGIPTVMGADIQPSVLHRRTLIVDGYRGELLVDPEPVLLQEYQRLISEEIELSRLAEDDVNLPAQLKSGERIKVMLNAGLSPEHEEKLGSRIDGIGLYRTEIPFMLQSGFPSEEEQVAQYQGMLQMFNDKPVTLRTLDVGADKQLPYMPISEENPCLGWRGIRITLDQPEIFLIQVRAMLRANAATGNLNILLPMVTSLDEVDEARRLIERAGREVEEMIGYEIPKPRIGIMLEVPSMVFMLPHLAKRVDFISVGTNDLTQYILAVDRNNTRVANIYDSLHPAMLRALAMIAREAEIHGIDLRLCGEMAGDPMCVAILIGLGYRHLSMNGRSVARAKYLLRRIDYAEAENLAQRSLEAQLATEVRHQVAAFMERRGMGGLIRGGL
Description: intrinsic tryptophan fluorescence quenching. In kind it is binding.

Each structure is given as a SMILES string.

One may read the Kd as the free concentration of one partner at which half of the binding sites on the other are occupied at equilibrium, for simple one-to-one binding. Low values mean a tighter complex, high ones a looser complex.

On to `O=C(O)CCC(=O)C(=O)O` [α-ketoglutarate], for which binding was put at a Kd of 3.3 mM.

For `NC(=O)CC[C@H](N)C(=O)O` [glutamine], the Kd stood at 0.7 mM.

(Values after PMC3633653 (Molecular microbiology, 2013).)
